In ChEMBL document CHEMBL5370694, “Novel Pyrrole Derivatives as Apolipoprotein L-1 Inhibitors for Treating Kidney Diseases and Sepsis” (ACS Med Chem Lett, 2023):

What was measured:
[1] = target: T1, Apolipoprotein L1 (Homo sapiens, UniProt O14791); assay: Inhibition of wild type APOL1 containing G0 in human U2OS cells incubated for 80 mins by thallium flux based FLIPR assay; assay type: cell-based
T1 sequence (O14791 whole entry): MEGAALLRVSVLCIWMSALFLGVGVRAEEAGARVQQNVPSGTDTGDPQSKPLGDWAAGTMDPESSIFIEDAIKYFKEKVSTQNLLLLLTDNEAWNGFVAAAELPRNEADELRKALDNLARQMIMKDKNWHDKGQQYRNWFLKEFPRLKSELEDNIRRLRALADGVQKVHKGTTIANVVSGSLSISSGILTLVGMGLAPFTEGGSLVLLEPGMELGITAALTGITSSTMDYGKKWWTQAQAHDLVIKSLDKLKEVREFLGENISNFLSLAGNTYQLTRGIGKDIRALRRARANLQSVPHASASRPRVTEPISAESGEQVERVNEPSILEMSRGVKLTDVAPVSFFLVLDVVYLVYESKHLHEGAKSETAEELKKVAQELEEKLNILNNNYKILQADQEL

[2] = Inhibition of APOL1 isoform G2 variant in human U2OS cells incubated for 80 mins by thallium flux based FLIPR assay; assay type: cell-based

| IC50 [1] | IC50 [2] | Structure (SMILES) |
| --- | --- | --- |
| 3.16 nM | 3.98 nM | O=C(CCc1cc(-c2c(F)cc(F)cc2F)[nH]c1-c1ccc(Cl)cc1)N[C@@H]1C(=O)NC[C@H]1O |
| 0.501 nM | 0.794 nM | O=C(CCc1cc(-c2c(F)cc(F)cc2Cl)[nH]c1-c1ccc(Cl)cc1)N[C@@H]1C(=O)NC[C@H]1O |
| 1.58 nM | 5.01 nM | CC(C)(C)c1cc(CCC(=O)N[C@@H]2C(=O)NC[C@H]2O)c(-c2ccc(C(F)(F)F)cc2)[nH]1 |
| 2.51 nM | 3.98 nM | O=C(CCc1cc(C2(C(F)(F)F)CC2)[nH]c1-c1ccc(Cl)cc1)N[C@@H]1C(=O)NC[C@H]1O |
| 2.51 nM | 5.01 nM | O=C(CCc1cc(C2(C(F)(F)F)CC2)[nH]c1-c1ccc(C(F)(F)F)cc1)N[C@@H]1C(=O)NC[C@H]1O |
| 2 nM | 5.01 nM | O=C(CCc1c(-c2ccc(Cl)cc2)[nH]c(C2(C(F)(F)F)CC2)c1F)N[C@@H]1C(=O)NC[C@H]1O |
